Results: publication PMC8387461, “T cell receptor recognition of hybrid insulin peptides bound to HLA-DQ8” (Nature Communications, 2021)

What was measured:
[1] = test system: SKW-3 A5.5 TCR cells; test: CD69 upregulation, SKW-3 A5.5 TCR cells; type: cell-based, human;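 for Geometric CD3: measured on live single GFP+ RFP+ cells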
Experimental: (§1) For TCR transduced SKW-3 T cell lines (SKW-3-TCR), response to antigen was determined using flow cytometry to assess the level of upregulation of the T cell activation marker CD69. One hundred thousand BLCL 9031 cells (HLA-DQ8 + : HLA-DQA*03:01:01, HLA-DQB1*03:02) as APCs were incubated at 37 °C, 5% CO2 for 24 h with increasing concentrations of synthesised HIP ([…]; GLBiochem) or native C-peptide ([…]; GLBiochem) or 50 μg DQ8-glia-α1 (control) in 96 well round-bottomed plates. To confirm HLA-DQ8-restriction, 2 μg/ml (SKW-3-ET672-1) or 50 μg/ml (all other SKW-3-TCR cell lines) C-peptide or HIP pulsed BLCL 9031 cells were blocked with a final concentration of 20 μg/ml anti-HLA-DQ monoclonal antibody (clone SPV-L3) for 3 h before stimulation (i.e. before the addition of SKW-3-TCR cell lines). T-cell activation assay were performed by mixing 1 × 10^5 SKW-3-TCR cells, SKW-3 parental cells (control) or SP3.4 (HLA-DQ8-glia-α1 restricted T cell line; control) cells with the peptide-pulsed BLCL 9031 cells or with 5 μl anti-CD3/CD28 dynabeads (Thermo Fisher Scientific) (control) at 37 °C, 5% CO2 for 20 h before antibody staining. The activated induced SKW-3-TCR T cells were washed twice with FACS buffer (Phosphate buffered saline, 10% Fetal Calf Serum (FCS; Merck)) (350 g, 5 min), and stained a mixture of 1:100 diluted V450 mouse anti-human CD3 (clone UCHT1, BD Biosciences) and APC Mouse Anti-Human CD69 (Clone FN50, BD Biosciences) for 1 h on ice in the dark. The samples were washed twice with PBS buffer (350 g, 5 min) to remove excess antibodies. Afterward, the samples were stained for live/dead cells with Zombie NIR (Biolegend) for 30 min at RT in the dark before being washed 6 times with FACS buffer (350 g, 5 min). Before data acquisition, the samples were resuspended in 100 μl of FACS buffer and analysed via flow cytometry (LSR II; BD Biosciences; BD FACSDiva-8.0.1 software). Collected data were analysed using Flowjo v10.6.0 (FlowJo), and then Prism 9 (GraphPad Software). […] Using these settings, the median fluorescence intensity (MFI) corresponding to the relative level of CD69 expressed on the SKW-3-TCR.TCR cell lines was determined using Flowjo v10.6.0 software. The MFI of CD69 were analysed by using Prism 9 (GraphPad Software). Three to six independent experiments were conducted, and all sample were performed in duplicates. Statistical significance was determined using P-values generated by t-test or one-way ANOVA multiple comparison of the MFI of no-peptide-stimulated SKW-3-TCR T cells versa the MFI of peptide-stimulated SKW-3-TCR T cells.
(§2) Supplementary Figure 1. Antigen reactivity of T cells transduced with TCRs isolated from T1D patient clones and recent onset T1D patient PBMCs. a, b Expression of CD69 on the surface of TCR transduced SKW3 cell lines stimulated overnight with C-peptide-p ulsed BLCL 9031 (top panel), or HIP-p ulsed BLCL 9031 (bottom panel). The SKW3 cell lines transduced with a TCRs isolated from primary T1D T clones and b TCRs isolated from recent onset T1D patient PBMCs (TCR name indicated above the graphs), were cultured with BLCL 9031 (no peptide) or with serial diluted concentration of peptide as indicated (grey), or 50 µg/ml C-peptide/HIP-pulsed BLCL 9031 blocked by anti-H LA-D Q mAb (clone SPV-L3; 20 µg/ml) (black), or 50 µg/ml glia-α1-p ulsed BLCL 9031 (purple; control), or 50 µg/ml C-peptide/HIP peptide only (cyan; control), or T cell lines alone (pink; control). Due to the strong reactivity of the SKW-T CR E672-1 cell line to HIP, only 2 µg of HIP was used in anti-HLA-D Q mAb blocking experiments. All samples were performed in duplicates and the black dots are presented as the mean fluorescence intensity (MFI) of average of duplicated values from three to six (n=3, n=4, n=5 or n=6) independent experiments. […]
(§3) expression. The fold increase in MFI CD69 expression was calculated by dividing the average MFI CD69 from each sample by the average MFI CD69 from BLCL 9031 (no […]
(§4) peptide). […]

[2] = test system: SKW-3 A2.13 TCR cells; test: CD69 upregulation, SKW-3 A2.13 TCR cells; type: cell-based, human; conditions: for MFI CD69: exp5
Experimental: as §1, §2, §3, §4

[3] = exp4, T cell +pep, 50 ug, replicate 1
[4] = exp4, T cell +pep, 50 ug, replicate 2
[5] = exp4, block, 50 ug, replicate 1
[6] = exp4, block, 50 ug, replicate 2
[7] = exp5, T cell +pep, 50 ug, replicate 1
[8] = exp5, T cell +pep, 50 ug, replicate 2
[9] = exp5, block, 50 ug, replicate 1
[10] = exp5, block, 50 ug, replicate 2
[11] = CD69 MFI, flow cytometry, peptide-pulsed BLCL 9031, 20 h

What does the source list for Cpeptide?
Geometric CD3 ([1]; exp4, 0.016 ug, replicate 1): 970; MFI CD69 ([1]; exp4, 0.016 ug, replicate 1): 898; Geometric CD3 ([1]; exp4, 0.016 ug, replicate 2): 979; MFI CD69 ([1]; exp4, 0.016 ug, replicate 2): 906; Geometric CD3 ([1]; exp4, 0.08 ug, replicate 1): 1058; MFI CD69 ([1]; exp4, 0.08 ug, replicate 1): 987; Geometric CD3 ([1]; exp4, 0.08 ug, replicate 2): 1030; MFI CD69 ([1]; exp4, 0.08 ug, replicate 2): 964; Geometric CD3 ([1]; exp4, 0.4 ug, replicate 1): 1103; MFI CD69 ([1]; exp4, 0.4 ug, replicate 1): 1037; Geometric CD3 ([1]; exp4, 0.4 ug, replicate 2): 1058; MFI CD69 ([1]; exp4, 0.4 ug, replicate 2): 984; Geometric CD3 ([1]; exp4, 2 ug, replicate 1): 1233; MFI CD69 ([1]; exp4, 2 ug, replicate 1): 1175; Geometric CD3 ([1]; exp4, 2 ug, replicate 2): 1197; MFI CD69 ([1]; exp4, 2 ug, replicate 2): 1130; Geometric CD3 ([1]; exp4, 10 ug, replicate 1): 1614; MFI CD69 ([1]; exp4, 10 ug, replicate 1): 1582; Geometric CD3 ([1]; exp4, 10 ug, replicate 2): 1577; MFI CD69 ([1]; exp4, 10 ug, replicate 2): 1557; Geometric CD3 ([1]; exp4, 50 ug, replicate 1): 2018; MFI CD69 ([1]; exp4, 50 ug, replicate 1): 2047; Geometric CD3 ([1]; exp4, 50 ug, replicate 2): 1694; MFI CD69 ([1]; exp4, 50 ug, replicate 2): 1685; Geometric CD3 ([1]; exp4, 100 ug, replicate 1): 3490; MFI CD69 ([1]; exp4, 100 ug, replicate 1): 3626; Geometric CD3 ([1]; exp4, 100 ug, replicate 2): 3657; MFI CD69 ([1]; exp4, 100 ug, replicate 2): 3824; Geometric CD3 [1, 3]: 739; MFI CD69 [1, 3]: 670; Geometric CD3 [1, 4]: 745; MFI CD69 [1, 4]: 679; Geometric CD3 [1, 5]: 1084; MFI CD69 [1, 5]: 1022; Geometric CD3 [1, 6]: 1068; MFI CD69 [1, 6]: 1007; Geometric CD3 ([1]; exp5, 0.016 ug, replicate 1): 1160; MFI CD69 ([1]; exp5, 0.016 ug, replicate 1): 1101; Geometric CD3 ([1]; exp5, 0.016 ug, replicate 2): 1175; MFI CD69 ([1]; exp5, 0.016 ug, replicate 2): 1127; Geometric CD3 ([1]; exp5, 0.08 ug, replicate 1): 1165; MFI CD69 ([1]; exp5, 0.08 ug, replicate 1): 1110; Geometric CD3 ([1]; exp5, 0.08 ug, replicate 2): 1145; MFI CD69 ([1]; exp5, 0.08 ug, replicate 2): 1084; Geometric CD3 ([1]; exp5, 0.4 ug, replicate 1): 1217; MFI CD69 ([1]; exp5, 0.4 ug, replicate 1): 1166; Geometric CD3 ([1]; exp5, 0.4 ug, replicate 2): 1219; MFI CD69 ([1]; exp5, 0.4 ug, replicate 2): 1163; Geometric CD3 ([1]; exp5, 2 ug, replicate 1): 1325; MFI CD69 ([1]; exp5, 2 ug, replicate 1): 1295; Geometric CD3 ([1]; exp5, 2 ug, replicate 2): 1288; MFI CD69 ([1]; exp5, 2 ug, replicate 2): 1227; Geometric CD3 ([1]; exp5, 10 ug, replicate 1): 1582; MFI CD69 ([1]; exp5, 10 ug, replicate 1): 1562; Geometric CD3 ([1]; exp5, 10 ug, replicate 2): 1544; MFI CD69 ([1]; exp5, 10 ug, replicate 2): 1512; Geometric CD3 ([1]; exp5, 50 ug, replicate 1): 2599; MFI CD69 ([1]; exp5, 50 ug, replicate 1): 2696; Geometric CD3 ([1]; exp5, 50 ug, replicate 2): 2645; MFI CD69 ([1]; exp5, 50 ug, replicate 2): 2725; Geometric CD3 ([1]; exp5, 100 ug, replicate 1): 3392; MFI CD69 ([1]; exp5, 100 ug, replicate 1): 3527; Geometric CD3 ([1]; exp5, 100 ug, replicate 2): 3273; MFI CD69 ([1]; exp5, 100 ug, replicate 2): 3433; Geometric CD3 [1, 7]: 840; MFI CD69 [1, 7]: 793; Geometric CD3 [1, 8]: 856; MFI CD69 [1, 8]: 819; Geometric CD3 [1, 9]: 761; MFI CD69 [1, 9]: 694; Geometric CD3 [1, 10]: 846; MFI CD69 [1, 10]: 770; MFI CD69 ([2]; 0.016 ug, replicate 1): 1218; MFI CD69 ([2]; 0.016 ug, replicate 2): 1366; MFI CD69 ([2]; 0.08 ug, replicate 1): 1349; MFI CD69 ([2]; 0.08 ug, replicate 2): 1478; MFI CD69 ([2]; 0.4 ug, replicate 1): 1535; MFI CD69 ([2]; 0.4 ug, replicate 2): 1892; MFI CD69 ([2]; 2 ug, replicate 1): 1776; MFI CD69 ([2]; 2 ug, replicate 2): 2613; MFI CD69 ([2]; 10 ug, replicate 1): 4442; MFI CD69 ([2]; 10 ug, replicate 2): 4296; MFI CD69 ([2]; 50 ug, replicate 1): 5931; MFI CD69 ([2]; 50 ug, replicate 2): 5830; MFI CD69 ([2]; 100 ug, replicate 1): 5697; MFI CD69 ([2]; 100 ug, replicate 2): 6898; MFI CD69 ([2]; T cell +pep, 50 ug, replicate 1): 712; MFI CD69 ([2]; T cell +pep, 50 ug, replicate 2): 880; MFI CD69 ([2]; block, 50 ug, replicate 1): 796

Which results are given for GQVELGGGNAVEVLK [HIP]?
sensitivity to HIP over C-peptide [1, 11]: ~ 3000 fold; sensitivity to HIP versus C-peptide [2, 11]: five fold more sensitive to HIP than C-peptide
